Assay results as given in patent US20100010057A1, “THIAZOLE DERIVATIVES AS INHIBITORS OF P13 KINASE” (CHROMA THERAPEUTICS LTD., priority 2006, published 2010).
pIC50: −log10 of the molar value.

Legend:
[1] = molecular target: PI3Kγ (human) (Homo sapiens, UniProt P48736); assay: Inhibition of PI3 kinase γ activity (HTRF); type: biochemical; details: ATP at or close to Km, IC50 range, read-out: Inhibitor activity versus PI3 Kinase γ
Description: (B) Inhibition of PI3 Kinase V Activity
In a final reaction volume of 20 μl, PI3Kγ (human) is incubated in assay buffer containing 10 μM phosphatidylinositol-4,5-bisphosphate and MgATP (concentration as required). The reaction is initiated by the addition of the MgATP mix. After incubation for 30 minutes at room temperature, the reaction is stopped by the addition of 5 μl of stop solution containing EDTA and biotinylated phosphatidylinositol-3,4,5-trisphosphate. Finally, 5 μl of detection buffer is added, which contains europium-labelled anti-GST monoclonal antibody, GST-tagged GRP1 PH domain and streptavidin-allophycocyanin. The plate is then read in time-resolved fluorescence mode and the homogenous time-resolved fluorescence (HTRF) signal is determined according to the formula HTRF=10000×(Em665 nm/Em620 nm).
Duplicate data points are generated from a ⅓ log dilution series of a stock solution of compound in DMSO. Nine dilutions steps are made from a top concentration of 10 μM, and a ‘no compound’ blank is included. The HTRF PI 3-Kinase assay is performed at an ATP concentration at, or close to, the Km. HTRF ratio data is transformed into % activity of controls and analysed with a four parameter sigmoidal dose-response (variable slope) application. QC criteria is based on Top, Bottom, Hill slope, r^2 and IC50, the concentration giving 50% inhibition, which is reported.
(§1) For each of the assays (B), (C) and (D) above, IC50 values are allocated to one of three ranges as follows: […]

[2] = tested on: THP-1 cells; assay: LPS-stimulation of THP-1 cells, TNF-α release; type: cell-based; details: Homo sapiens, LPS 1 μg/ml, 6 h, TNF-α by ELISA, IC50 range, read-out: Inhibitor activity versus THP-1 TNFα release
Description: (C) LPS-Stimulation of THP-1 Cells
THP-1 cells are plated in 100 μl at a density of 4×10^4 cells/well in V-bottomed 96 well tissue culture treated plates and incubated at 37° C. in 5% CO2 for 16 h. 2 h after the addition of the inhibitor in 100 μl of tissue culture media, the cells are stimulated with LPS (E. coli strain 005:B5, Sigma) at a final concentration of 1 μg/ml and incubated at 37° C. in 5% CO2 for 6 h. TNF-α levels are measured from cell-free supernatants by sandwich ELISA (R&D Systems #QTA00B)
as §1

Chain of PI3Kγ (human) (P48736 whole entry): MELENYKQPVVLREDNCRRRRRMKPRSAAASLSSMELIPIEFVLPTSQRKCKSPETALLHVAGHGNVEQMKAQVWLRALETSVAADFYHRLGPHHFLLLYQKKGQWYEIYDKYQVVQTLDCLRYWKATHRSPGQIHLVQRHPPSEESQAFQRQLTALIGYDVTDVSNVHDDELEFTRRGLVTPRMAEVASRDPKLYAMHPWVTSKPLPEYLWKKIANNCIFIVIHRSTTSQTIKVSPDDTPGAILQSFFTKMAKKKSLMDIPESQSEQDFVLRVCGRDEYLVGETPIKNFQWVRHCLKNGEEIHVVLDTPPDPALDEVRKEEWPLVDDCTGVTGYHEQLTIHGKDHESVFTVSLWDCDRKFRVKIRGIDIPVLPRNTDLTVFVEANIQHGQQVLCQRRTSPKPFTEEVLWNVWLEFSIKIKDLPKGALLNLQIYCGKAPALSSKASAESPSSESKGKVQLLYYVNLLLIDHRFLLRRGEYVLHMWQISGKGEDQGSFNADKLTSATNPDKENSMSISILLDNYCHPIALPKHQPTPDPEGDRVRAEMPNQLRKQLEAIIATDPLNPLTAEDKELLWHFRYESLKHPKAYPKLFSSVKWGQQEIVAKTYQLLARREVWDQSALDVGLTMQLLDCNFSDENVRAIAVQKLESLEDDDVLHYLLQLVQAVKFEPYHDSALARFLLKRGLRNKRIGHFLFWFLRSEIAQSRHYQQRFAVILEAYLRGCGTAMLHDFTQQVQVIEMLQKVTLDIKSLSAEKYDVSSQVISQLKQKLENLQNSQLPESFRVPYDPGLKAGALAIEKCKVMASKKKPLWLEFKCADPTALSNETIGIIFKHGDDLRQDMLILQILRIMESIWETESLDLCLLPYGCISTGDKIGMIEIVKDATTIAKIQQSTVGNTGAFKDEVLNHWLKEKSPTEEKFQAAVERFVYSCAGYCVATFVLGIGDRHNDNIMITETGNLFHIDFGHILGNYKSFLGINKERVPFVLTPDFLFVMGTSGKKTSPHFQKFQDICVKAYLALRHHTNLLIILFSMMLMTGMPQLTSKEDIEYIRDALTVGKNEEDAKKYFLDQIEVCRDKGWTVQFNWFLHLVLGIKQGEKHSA

pIC50 [1] | pIC50 [2] | SMILES
6.00 to 7.00 | < 6.00 | Cc1nc(NC(=O)N[C@@H](COC(C)(C)C)C(=O)OC2CCCC2)sc1-c1ccc(Cl)c(S(C)(=O)=O)c1 [Example 4, Cyclopentyl O-tert-butyl-N-({5-[4-chloro-3-(methylsulfonyl)phenyl]-4-methyl-1,3-thiazol-2-yl}carbamoyl)-L-serinate]
6.00 to 7.00 | – | Cc1nc(NC(=O)CCCN[C@@H](CCC(=O)O)C(=O)OC2CCCC2)sc1-c1ccc(Cl)c(S(C)(=O)=O)c1 [Example 8, (4S)-4-{[4-({5-[4-Chloro-3-(methylsulfonyl)phenyl]-4-methyl-1,3-thiazol-2-yl}amino)-4-oxobutyl]amino}-5-(cyclopentyloxy)-5-oxopentanoic acid]
6.00 to 7.00 | < 6.00 | Cc1nc(NC(=O)CCCN[C@@H](C(=O)OC2CCCC2)c2ccccc2)sc1-c1ccc(Cl)c(S(C)(=O)=O)c1 [Example 9, Cyclopentyl (2R)-{[4-({5-[4-chloro-3-(methylsulfonyl)phenyl]-4-methyl-1,3-thiazol-2-yl}amino)-4-oxobutyl]amino}(phenyl)acetate]
6.00 to 7.00 | < 6.00 | Cc1nc(NC(=O)CCCN[C@H](C(=O)OC2CCCC2)c2ccccc2)sc1-c1ccc(Cl)c(S(C)(=O)=O)c1 [Example 10, Cyclopentyl (2S)-{[4-({5-[4-chloro-3-(methylsulfonyl)phenyl]-4-methyl-1,3-thiazol-2-yl}amino)-4-oxobutyl]amino}(phenyl)acetate]
< 6.00 | < 6.00 | Cc1nc(NC(=O)CCCN[C@@H](Cc2ccccc2)C(=O)OC2CCCC2)sc1-c1ccc(Cl)c(S(C)(=O)=O)c1 [Example 11, Cyclopentyl N-[4-({5-[4-chloro-3-(methylsulfonyl)phenyl]-4-methyl-1,3-thiazol-2-yl}amino)-4-oxobutyl]-L-phenylalaninate]
< 6.00 | < 6.00 | Cc1nc(NC(=O)CCCN[C@@H](COC(C)(C)C)C(=O)OC2CCCC2)sc1-c1ccc(Cl)c(S(C)(=O)=O)c1 [Example 12, Cyclopentyl O-tert-butyl-N-[4-({5-[4-chloro-3-(methylsulfonyl)phenyl]-4-methyl-1,3-thiazol-2-yl}amino)-4-oxobutyl]-L-serinate]
< 6.00 | < 6.00 | Cc1nc(NC(=O)CCCN[C@H](C(=O)OC2CCCC2)C2CCCCC2)sc1-c1ccc(Cl)c(S(C)(=O)=O)c1 [Example 13, Cyclopentyl (2S)-{[4-({5-[4-chloro-3-(methylsulfonyl)phenyl]-4-methyl-1,3-thiazol-2-yl}amino)-4-oxobutyl]amino}(cyclohexyl)acetate]
< 6.00 | < 6.00 | Cc1nc(NC(=O)CCCN[C@@H](CC(C)C)C(=O)OC(C)(C)C)sc1-c1ccc(Cl)c(S(C)(=O)=O)c1 [Example 14, tert-Butyl N-[4-({5-[4-chloro-3-(methylsulfonyl)phenyl]-4-methyl-1,3-thiazol-2-yl}amino)-4-oxobutyl]-L-leucinate]
< 6.00 | < 6.00 | Cc1nc(NC(=O)CCCN[C@@H](COC(C)(C)C)C(=O)OC(C)(C)C)sc1-c1ccc(Cl)c(S(C)(=O)=O)c1 [Example 15, tert-Butyl O-tert-butyl-N-[4-({5-[4-chloro-3-(methylsulfonyl)phenyl]-4-methyl-1,3-thiazol-2-yl}amino)-4-oxobutyl]-L-serinate]
< 6.00 | 6.00 to 7.00 | Cc1nc(NC(=O)CCN[C@@H](C)C(=O)OC2CCCC2)sc1-c1ccc(Cl)c(S(C)(=O)=O)c1 [Example 16, Cyclopentyl N-[3-({5-[4-chloro-3-(methylsulfonyl)phenyl]-4-methyl-1,3-thiazol-2-yl}amino)-3-oxopropyl]-L-alaninate]
< 6.00 | – | Cc1nc(NC(=O)N[C@@H](COC(C)(C)C)C(=O)O)sc1-c1ccc(Cl)c(S(C)(=O)=O)c1 [Example 30, O-tert-Butyl-N-({5-[4-chloro-3-(methylsulfonyl)phenyl]-4-methyl-1,3-thiazol-2-yl}carbamoyl)-L-serine]
< 6.00 | – | Cc1nc(NC(=O)N[C@@H](Cc2ccccc2)C(=O)O)sc1-c1ccc(Cl)c(S(C)(=O)=O)c1 [Example 31, N-({5-[4-Chloro-3-(methylsulfonyl)phenyl]-4-methyl-1,3-thiazol-2-yl}carbamoyl)-L-phenylalanine]
< 6.00 | – | Cc1nc(NC(=O)CCCN[C@@H](CC(C)C)C(=O)O)sc1-c1ccc(Cl)c(S(C)(=O)=O)c1 [Example 32, N-4-({5-[4-Chloro-3-(methylsulfonyl)phenyl-4-methyl-1,3-thiazol-2-yl}amino)-4-oxobutyl]-L-leucine]
< 6.00 | – | Cc1nc(NC(=O)CCCN[C@@H](CCC(=O)O)C(=O)O)sc1-c1ccc(Cl)c(S(C)(=O)=O)c1 [Example 33, N-[4-({5-[4-Chloro-3-(methylsulfonyl)phenyl]-4-methyl-1,3-thiazol-2-yl}amino)-4-oxobutyl]-L-glutamic acid]
< 6.00 | – | Cc1nc(NC(=O)CCCN[C@@H](C(=O)O)c2ccccc2)sc1-c1ccc(Cl)c(S(C)(=O)=O)c1 [Example 34, (2R)-{[4-({5-[4-Chloro-3-(methylsulfonyl)phenyl]-4-methyl-1,3-thiazol-2-yl}amino)-4-oxobutyl]amino}(phenyl)acetic acid]
< 6.00 | – | Cc1nc(NC(=O)CCCN[C@H](C(=O)O)c2ccccc2)sc1-c1ccc(Cl)c(S(C)(=O)=O)c1 [Example 35, (2S)-{[4-({5-[4-Chloro-3-(methylsulfonyl)phenyl]-4-methyl-1,3-thiazol-2-yl}amino)-4-oxobutyl]amino}(phenyl)acetic acid]
< 6.00 | – | Cc1nc(NC(=O)CCCN[C@@H](Cc2ccccc2)C(=O)O)sc1-c1ccc(Cl)c(S(C)(=O)=O)c1 [Example 36, N-[4-({5-[4-Chloro-3-(methylsulfonyl)phenyl]-4-methyl-1,3-thiazol-2-yl}amino)-4-oxobutyl]-L-phenylalanine]
< 6.00 | – | Cc1nc(NC(=O)CCCN[C@@H](COC(C)(C)C)C(=O)O)sc1-c1ccc(Cl)c(S(C)(=O)=O)c1 [Example 37, O-tert-Butyl-N-[4-({5-[4-chloro-3-(methylsulfonyl)phenyl]-4-methyl-1,3-thiazol-2-yl}amino)-4-oxobutyl]-L-serine]
< 6.00 | – | Cc1nc(NC(=O)CCN[C@@H](C)C(=O)O)sc1-c1ccc(Cl)c(S(C)(=O)=O)c1 [Example 38, N-[3-({5-[4-Chloro-3-(methylsulfonyl)phenyl]-4-methyl-1,3-thiazol-2-yl}amino)-3-oxopropyl]-L-alanine]
< 6.00 | – | Cc1nc(NCCCN[C@@H](CC(C)C)C(=O)O)sc1-c1ccc(Cl)c(S(C)(=O)=O)c1 [Example 39, N-[3-({5-[4-Chloro-3-(methylsulfonyl)phenyl]-4-methyl-1,3-thiazol-2-yl}amino)propyl]-L-leucine]
< 6.00 | – | Cc1nc(NCC2CCC(N[C@@H](CC(C)C)C(=O)O)CC2)sc1-c1ccc(Cl)c(S(C)(=O)=O)c1 (stereo partly drawn) [Example 40, N-{4-[({5-[4-Chloro-3-(methylsulfonyl)phenyl]-4-methyl-1,3-thiazol-2-yl}amino)methyl]cyclohexyl}-L-leucine]
< 6.00 | – | CC(=O)Nc1nc(C)c(-c2ccc(Cl)c(S(=O)(=O)N[C@@H](C)C(=O)O)c2)s1 [Example 41, N-{[5-(2-Acetamido-4-methyl-1,3-thiazol-5-yl)-2-chlorophenyl]sulfonyl}-L-alanine]
< 6.00 | – | CC(=O)Nc1nc(C)c(-c2ccc(Cl)c(S(=O)(=O)N[C@@H](COC(C)(C)C)C(=O)O)c2)s1 [Example 42, N-{[5-(2-Acetamido-4-methyl-1,3-thiazol-5-yl)-2-chlorophenyl]sulfonyl}-O-tert-butyl-L-serine]
< 6.00 | – | CC(=O)Nc1nc(C)c(-c2ccc(Cl)c(S(=O)(=O)NCCN[C@@H](CC(C)C)C(=O)O)c2)s1 [Example 43, N-[2-({[5-(2-Acetamido-4-methyl-1,3-thiazol-5-yl)-2-chlorophenyl]sulfonyl}amino)ethyl]-L-leucine]
< 6.00 | – | CC(=O)Nc1nc(C)c(-c2ccc(Cl)c(S(=O)(=O)N[C@@H](CO)C(=O)O)c2)s1 [Example 44, N-{[5-(2-Acetamido-4-methyl-1,3-thiazol-5-yl)-2-chlorophenyl]sulfonyl}-L-serine]
< 6.00 | – | Cc1nc(NC(=O)CCCN[C@@H](CO)C(=O)O)sc1-c1ccc(Cl)c(S(C)(=O)=O)c1 [Example 45, N-[4-({5-[4-Chloro-3-(methylsulfonyl)phenyl]-4-methyl-1,3-thiazol-2-yl}amino)-4-oxobutyl]-L-serine]
